Results published in patent US20240408274A1, “STENTS AND METHODS OF USE” (UNIVERSITY OF CONNECTICUT, priority 2021, published 2024).

Test system: Urothelial cell
Experiment: Urothelial cell scratch assay (wound assay)
Format: cell-based
Conditions: at 48 hours; FIGS. 7A-7B
Source text: As used herein a “scratch assay,” (i.e., a wound assay) is a method to measure two-dimensional cell migration. Six growth factors were selected and tested: EGF, FGF-2, PDGF, TGF-β1, and VEGF.

Substance	wound gap coverage
IGF-1: insulin-like growth factor 1, growth factor tested in urothelial scratch assay	increase
EGF: epidermal growth factor, growth factor tested in urothelial scratch assay (NSDSECPLSHDGYCLHDGVCMYIEALDKYACNCVVGYIGERCQYRDLKWWELR; UniProt P01133 971-1023, looked up)	increase
